Measurements from PubChem BioAssay (NCI).
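In this assay, cells in 96-well plates receive the compound at five concentrations for 48 hours. Endpoints are linearly interpolated between the surrounding concentrations. At the TGI there is no net growth.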

How the values were obtained:
Experiment in all cases: growth of human tumour cells (NCI), 48 h
UO-31 renal = test system: UO-31 renal
LXFL 529 NSCLC = test system: LXFL 529 NSCLC
HCT-15 colon = test system: HCT-15 colon
M19-MEL melanoma = test system: M19-MEL melanoma
DMS 114 small cell lung = test system: DMS 114 small cell lung
OVCAR-5 ovarian = test system: OVCAR-5 ovarian
EKVX NSCLC = test system: EKVX NSCLC
SW-620 colon = test system: SW-620 colon
UACC-257 melanoma = test system: UACC-257 melanoma
SNB-78 CNS = test system: SNB-78 CNS
KM12 colon = test system: KM12 colon
NCI-H522 lung = test system: NCI-H522 lung
K-562 leukemia = test system: K-562 leukemia
SK-MEL-28 melanoma = test system: SK-MEL-28 melanoma
SF-539 CNS = test system: SF-539 CNS
DMS 273 small cell lung = test system: DMS 273 small cell lung
KM20L2 colon = test system: KM20L2 colon
OVCAR-8 ovarian = test system: OVCAR-8 ovarian
SNB-19 CNS = test system: SNB-19 CNS
786-0 renal = test system: 786-0 renal
A549 NSCLC = test system: A549 NSCLC
NCI-H226 lung = test system: NCI-H226 lung
MALME-3M melanoma = test system: MALME-3M melanoma
HCC-2998 colon = test system: HCC-2998 colon
MOLT-4 leukemia = test system: MOLT-4 leukemia
SN12C renal = test system: SN12C renal
COLO 205 colon = test system: COLO 205 colon
HOP-92 NSCLC = test system: HOP-92 NSCLC
SF-295 CNS = test system: SF-295 CNS
RPMI-8226 leukemia = test system: RPMI-8226 leukemia
HCT-116 colon = test system: HCT-116 colon
OVCAR-4 ovarian = test system: OVCAR-4 ovarian
NCI-H23 lung = test system: NCI-H23 lung
SR leukemia = test system: SR leukemia
OVCAR-3 ovarian = test system: OVCAR-3 ovarian
U251 CNS = test system: U251 CNS
CAKI-1 renal = test system: CAKI-1 renal
ACHN renal = test system: ACHN renal
SK-MEL-2 melanoma = test system: SK-MEL-2 melanoma
RXF 393 renal = test system: RXF 393 renal
SF-268 CNS = test system: SF-268 CNS
HT29 colon = test system: HT29 colon
TK-10 renal = test system: TK-10 renal
SNB-75 CNS = test system: SNB-75 CNS
SK-MEL-5 melanoma = test system: SK-MEL-5 melanoma
DU-145 prostate = test system: DU-145 prostate
DLD-1 colon = test system: DLD-1 colon
NCI/ADR-RES ovarian = test system: NCI/ADR-RES ovarian
CCRF-CEM leukemia = test system: CCRF-CEM leukemia
SK-OV-3 ovarian = test system: SK-OV-3 ovarian
HOP-18 NSCLC = test system: HOP-18 NSCLC
A498 renal = test system: A498 renal
IGROV1 ovarian = test system: IGROV1 ovarian
HOP-62 NSCLC = test system: HOP-62 NSCLC
HL-60(TB) leukemia = test system: HL-60(TB) leukemia
UACC-62 melanoma = test system: UACC-62 melanoma
M14 melanoma = test system: M14 melanoma
NCI-H460 lung = test system: NCI-H460 lung
PC-3 prostate = test system: PC-3 prostate
MDA-MB-435 = test system: MDA-MB-435
MDA-MB-231 breast = test system: MDA-MB-231 breast
MDA-N = test system: MDA-N
HS 578T breast = test system: HS 578T breast
BT-549 breast = test system: BT-549 breast
T-47D breast = test system: T-47D breast
MCF7 breast = test system: MCF7 breast
LOX IMVI melanoma = test system: LOX IMVI melanoma

Measured: TGI

COC(=O)c1ccc(Cl)cc1NC(=O)C1CCCCC1
not listed: SNB-75 CNS | SK-MEL-5 melanoma | DU-145 prostate | DLD-1 colon | NCI/ADR-RES ovarian | CCRF-CEM leukemia | SK-OV-3 ovarian | HOP-18 NSCLC | A498 renal | IGROV1 ovarian | HOP-62 NSCLC | HL-60(TB) leukemia | UACC-62 melanoma | M14 melanoma | NCI-H460 lung | PC-3 prostate | MDA-MB-435 | MDA-MB-231 breast | MDA-N | HS 578T breast | BT-549 breast | T-47D breast | MCF7 breast | LOX IMVI melanoma
> 100 µM: all other assays above

CCCCC(=O)OC[n+]1ccc2c(C)c3[nH]c4ccccc4c3c(C)c2c1
1.81 µM: ACHN renal
1.72 µM: UACC-62 melanoma
6.44 µM: HOP-92 NSCLC
3.01 µM: MOLT-4 leukemia
9.74 µM: HOP-18 NSCLC
11.5 µM: SK-MEL-2 melanoma
2.54 µM: OVCAR-3 ovarian
2.79 µM: KM20L2 colon
2.98 µM: MALME-3M melanoma
1.62 µM: 786-0 renal
1.82 µM: OVCAR-5 ovarian
2.64 µM: SK-OV-3 ovarian
2.59 µM: SNB-75 CNS
2.44 µM: HT29 colon
3.04 µM: EKVX NSCLC
1.64 µM: DLD-1 colon
3.69 µM: UO-31 renal
4.56 µM: CAKI-1 renal
6.23 µM: IGROV1 ovarian
2.22 µM: COLO 205 colon
2.62 µM: A498 renal
2.33 µM: NCI-H522 lung
2.05 µM: HOP-62 NSCLC
2 µM: KM12 colon | SF-539 CNS | SN12C renal
1.59 µM: HCT-15 colon
4.08 µM: CCRF-CEM leukemia
0.978 µM: HCC-2998 colon
2.31 µM: SR leukemia
2.73 µM: DU-145 prostate
2.06 µM: NCI-H226 lung
2.84 µM: SK-MEL-5 melanoma
5.01 µM: TK-10 renal
2.52 µM: RXF 393 renal
1.63 µM: K-562 leukemia
1.97 µM: SF-295 CNS
2.93 µM: NCI/ADR-RES ovarian | HL-60(TB) leukemia

Cc1nc2ccccc2c(=O)n1NC(=S)Nc1ccc(Cl)cc1[N+](=O)[O-]
not listed: SNB-78 CNS | DMS 273 small cell lung | NCI-H226 lung | HCC-2998 colon | DLD-1 colon | HOP-18 NSCLC | LOX IMVI melanoma
> 100 µM: all other assays above

O=c1[nH]cnc2c1CCCN2
not listed: SF-539 CNS | DMS 273 small cell lung | NCI-H226 lung | OVCAR-4 ovarian | DU-145 prostate | NCI/ADR-RES ovarian | A498 renal | NCI-H460 lung | PC-3 prostate | MDA-MB-435 | MDA-MB-231 breast | MDA-N | HS 578T breast | BT-549 breast | T-47D breast | MCF7 breast
> 100 µM: all other assays above
